The source of these data is patent US9139578B2 (BRISTOL-MYERS SQUIBB COMPANY, priority 2012, dated 2015).

In the assay the target is endothelial lipase (EL) (Homo sapiens (Human), UniProt Q9Y5X9). The experiment in a line: Endothelial lipase (EL) enzymatic assay with fluorescent substrate A10070 in DMPG vesicles. The class given is biochemical. The following applies: conditioned media from HT-1080 cells overexpressing endogenous EL; 20 min preincubation at 37° C. Here is the method: Endothelial lipase activity was measured using a fluorescent substrate, A10070, (Invitrogen, CA) doped into an artificial vesicle containing DMPG (Avanti Polar Lipids) as the excipient. Vesicles were prepared by combining 285 μL, of 1 mM DMPG in a 1:1 mixture of MeOH and CHCl3 with 15 μL, of 1 mM A10070 in a 1:1 mixture of MeOH and CHCl3. The mixture was dried under nitrogen and resuspended in 150 μL, of 50 mM HEPES pH 8.0 buffer containing 100 mM NaCl and 0.2 mM EDTA. The sample was allowed to sit at rt for 15 min and then was sonicated 3×4 mins on ice with a Branson Sonicator using duty cycle 1. This preparation provides vesicles with a mole fraction of 0.05 for the FRET substrate.
Chain of endothelial lipase (EL) (Q9Y5X9 21-500): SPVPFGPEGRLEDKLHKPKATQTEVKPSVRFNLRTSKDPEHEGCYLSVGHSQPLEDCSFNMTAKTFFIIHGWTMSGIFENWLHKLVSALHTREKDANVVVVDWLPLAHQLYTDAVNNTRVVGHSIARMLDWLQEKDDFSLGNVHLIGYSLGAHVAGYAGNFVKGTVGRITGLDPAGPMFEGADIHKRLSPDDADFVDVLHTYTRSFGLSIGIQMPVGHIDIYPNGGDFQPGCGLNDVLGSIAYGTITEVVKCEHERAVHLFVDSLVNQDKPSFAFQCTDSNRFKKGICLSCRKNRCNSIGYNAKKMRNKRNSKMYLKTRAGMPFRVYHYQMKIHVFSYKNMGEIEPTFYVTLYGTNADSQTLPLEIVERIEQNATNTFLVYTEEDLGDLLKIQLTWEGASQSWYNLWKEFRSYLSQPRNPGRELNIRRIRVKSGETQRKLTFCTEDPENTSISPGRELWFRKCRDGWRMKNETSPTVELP
The enzymatic assay was measured using white, opaque 96-well half area plates. Each well contained 60 μL, of assay buffer (50 mM HEPES pH 8.0, 50 mM NaCl and 1 mM CaCl2) and 2 ul of a DMSO solution containing compound of interest. Conditioned media obtained from HT-1080 cells, which were transformed by RAGE technology (Athersys) to overexpress endogenous EL, was added and the reaction was allowed to incubate for 20 min at 37° C. with gentle agitation. The reaction was started by the addition of 20 μL, of a 1:4 dilution of vesicles. The final total reaction volume was 100 μL. The reaction rates were measured on a Gemini plate reader with an excitation wavelength of 488 nm and an emission of 530 nm. Readings were taken every 20 seconds for 10 min with agitation between each reading. The slope of the linear portion of the readout was used to calculate the rate of the reaction.
The IC50 is the concentration needed to halve the response being measured. For `O=C1NC(=O)C(Cc2nnc(C(NC(=O)c3ccc(C(F)(F)F)cc3)c3nc4ccc(-c5ccc(F)nc5)cc4s3)o2)S1` (centres unmarked) [Example 1, N-((5-((2,4-dioxothiazolidin-5-yl)methyl)-1,3,4-oxadiazol-2-yl)(6-(6-fluoropyridin-3-yl)benzo[d]thiazol-2-yl)methyl)-4-(trifluoromethyl)benzamide], the IC50 was less than 10 nM.

In the case of `NS(=O)(=O)NCc1nnc(C(NC(=O)c2ccc(C(F)(F)F)cc2)c2nc3ccc(-c4ccc(F)nc4)cc3s2)o1` (centres unmarked) [Example 2, N-((6-(6-fluoropyridin-3-yl)benzo[d]-thiazol-2-yl)(5-((sulfamoyl-amino)-methyl)-1,3,4-oxadiazol-2-yl)methyl)-4-(trifluoro-methyl)-benzamide], the IC50 was less than 10 nM.

`NS(=O)(=O)NCc1nnc(C(NC(=O)c2cccnc2)c2nc3ccc(-c4ccc(F)nc4)cc3s2)o1` (centres unmarked) [Example 3, N-((6-(6-fluoropyridin-3-yl)benzo[d]-thiazol-2-yl)(5-((sulfamoyl-amino)-methyl)-1,3,4-oxadiazol-2-yl)methyl)-nicotinamide] yielded an IC50 of less than 10 nM.

The compound `NS(=O)(=O)NCc1nnc(C(NC(=O)NCc2ccccc2)c2nc3ccc(-c4ccc(F)nc4)cc3s2)o1` (centres unmarked) [Example 4, 1-benzyl-3-((6-(6-fluoro-3-pyridinyl)-1,3-benzothiazol-2-yl)(5-((sulfamoyl-amino)-methyl)-1,3,4-oxadiazol-2-yl)methyl)urea] showed a concentration for half-maximal inhibition (IC50) of less than 10 nM.

Consider `CCC(=O)NC(c1nnc(CNS(N)(=O)=O)o1)c1nc2ccc(-c3ccc(F)nc3)cc2s1` (centres unmarked) [Example 5, N-((6-(6-fluoropyridin-3-yl)benzo[d]-thiazol-2-yl)(5-M-((sulfamoyl-amino)-methyl)-1,3,4-oxadiazol-2-yl)methyl)-propionamide], for which the IC50 is less than 10 nM.

Regarding `CCOC(=O)CNC(=O)NC(c1nnc(CNS(N)(=O)=O)o1)c1nc2ccc(-c3ccc(F)nc3)cc2s1` (centres unmarked) [Example 6, ethyl 2-(3-((6-(6-fluoropyridin-3-yl)benzo[d]-thiazol-2-yl)(5-((sulfamoyl-amino)-methyl)-1,3,4-oxadiazol-2-yl)methyl)-ureido)acetate], the half-maximal inhibitory concentration (IC50) was less than 10 nM.

Turning to `NS(=O)(=O)NCc1nnc(C(NC(=O)Nc2ccc(F)cc2)c2nc3ccc(-c4ccc(F)nc4)cc3s2)o1` (centres unmarked) [Example 7, 1-(4-fluoro-phenyl)-3-((6-(6-fluoro-3-pyridinyl)-1,3-benzothiazol-2-yl)(5-((sulfamoyl-amino)-methyl)-1,3,4-oxadiazol-2-yl)methyl)urea], the IC50 is less than 10 nM.

Regarding `Cc1noc(C)c1NC(=O)NC(c1nnc(CNS(N)(=O)=O)o1)c1nc2ccc(-c3ccc(F)nc3)cc2s1` (centres unmarked) [Example 8, 1-(3,5-dimethyl-4-isoxazolyl)-3-((6-(6-fluoro-3-pyridinyl)-1,3-benzothiazol-2-yl)(5-((sulfamoyl-amino)-methyl)1,3,4-oxadiazol-2-yl)methyl)urea], the 50% inhibitory concentration (IC50) is less than 10 nM.

In the case of `CC(=O)NC(c1nnc(CC2SC(=O)NC2=O)o1)c1nc2ccc(-c3ccc(F)nc3)cc2s1` (centres unmarked) [Example 9, N-((5-((2,4-dioxo-thiazolidin-5-yl)methyl)-1,3,4-oxadiazol-2-yl)-(6-(6-fluoropyridin-3-yl)benzo[d]-thiazol-2-yl)-methyl)-acetamide], the IC50 was less than 10 nM.

On to `CC(=O)NC(c1nnc(CNS(N)(=O)=O)o1)c1nc2ccc(-c3ccc(F)nc3)cc2s1` (centres unmarked) [Example 10, N-((6-(6-fluoropyridin-3-yl)benzo[d]-thiazol-2-yl)(5-((sulfamoyl-amino)-methyl)-1,3,4-oxadiazol-2-yl)methyl)-acetamide], for which the half-maximal inhibitory concentration (IC50) is less than 10 nM.

As to `CC(=O)NC(c1nnc(CC2SC(=O)NC2=O)o1)c1nc2ccc(-c3ccnn3C)cc2s1` (centres unmarked) [Example 11, N-((5-((2,4-dioxo-thiazolidin-5-yl)methyl)-1,3,4-oxadiazol-2-yl)(6-(1-methyl-1H-pyrazol-5-yl)benzo[d]-thiazol-2-yl)methyl)-acetamide], the IC50 was less than 10 nM.

On to `CC(=O)NC(c1nnc(CNS(N)(=O)=O)o1)c1nc2ccc(-c3ccccc3)cc2s1` (centres unmarked) [Example 12, N-((6-phenylbenzo[d]thiazol-2-yl)(5-((sulfamoylamino)methyl)-1,3,4-oxadiazol-2-yl)methyl)acetamide], for which the IC50 is less than 10 nM.

In turn, `CC(C)C(=O)NC(c1nnc(CNS(N)(=O)=O)o1)c1nc2ccc(-c3ccccc3)cc2s1` (centres unmarked) [Example 13, N-((6-phenylbenzo[d]-thiazol-2-yl)(5-((sulfamoylamino)-methyl)-1,3,4-oxadiazol-2-yl)methyl)-isobutyramide] gave a half-inhibitory concentration (IC50) of less than 10 nM.

The compound `CC(C)NC(=O)NC(c1nnc(CNS(N)(=O)=O)o1)c1nc2ccc(-c3ccccc3)cc2s1` (centres unmarked) [Example 15, 1-isopropyl-3-((6-phenyl-1,3-benzothiazol-2-yl)(5-((sulfamoylamino)-methyl)-1,3,4-oxadiazol-2-yl)methyl)urea] came in with an IC50 of less than 10 nM.

Regarding `NS(=O)(=O)NCc1nnc(C(NC(=O)c2ccc(C(F)(F)F)cc2)c2nc3ccc(-c4ccccc4)cc3s2)o1` (centres unmarked) [Example 16, N-((6-phenylbenzo[d]-thiazol-2-yl)(5-((sulfamoylamino)-methyl)-1,3,4-oxadiazol-2-yl)methyl)-4-(trifluoromethyl)-benzamide], the IC50 was less than 10 nM.

In the case of `CC(=O)NC(c1nnc(CNC(=O)OC(C)(C)C)o1)c1nc2ccc(-c3ccccc3)cc2s1` (centres unmarked) [Example 17, tert-butyl ((5-(acetamido(6-phenylbenzo[d]-thiazol-2-yl)methyl)-1,3,4-oxadiazol-2-yl)methyl)-carbamate], the half-maximal inhibitory concentration (IC50) is less than 10 nM.

In the case of `O=C(NC(c1nnc(CS(=O)(=O)O)o1)c1nc2ccc(-c3ccccc3)cc2s1)C1CC1` (centres unmarked) [Example 18, (5-(cyclopropane-carboxamido-(6-phenylbenzo[d]-thiazol-2-yl)methyl)-1,3,4-oxadiazol-2-yl)methanesulfonic acid], the IC50 was less than 10 nM.

On to `O=C1NC(=O)C(Cc2nnc(C(NC(=O)C3CC3)c3nc4c(F)cc(-c5ccccc5)cc4s3)o2)S1` (centres unmarked) [Example 21], for which the IC50 is less than 10 nM.

In the case of `O=C1NC(=O)C(Cc2nnc(C(NC(=O)c3ccc(C(F)(F)F)cc3)c3nc4c(F)cc(-c5ccccc5)cc4s3)o2)S1` (centres unmarked) [Example 22], the IC50 is less than 10 nM.

`CC(=O)NC(c1nnc(CC2(C)NC(=O)NC2=O)o1)c1nc2ccc(-c3ccc(C(=O)N4CCOCC4)cc3)cc2s1` (centres unmarked) [Example 23, N-((5-((4-methyl-2,5-dioxoimidazolidin-4-yl)methyl)-1,3,4-oxadiazol-2-yl)(6-(4-(morpholine-4-carbonyl)phenyl)benzo[d]thiazol-2-yl)methyl)acetamide] returned a 50% inhibitory concentration (IC50) of 131 nM.

`COc1nc(-c2nnc(C(NC(C)=O)c3nc4ccc(-c5ccccc5)cc4s3)o2)c(O)c(=O)[nH]1` (centres unmarked) [Example 24, N-((5-(5-hydroxy-2-methoxy-6-oxo-1,6-dihydropyrimidin-4-yl)-1,3,4-oxadiazol-2-yl)(6-phenylbenzo[d]thiazol-2-yl)methyl)acetamide]: the IC50 was 25 nM.

Regarding `CC(=O)NC(c1nnc(C2CNC2)o1)c1nc2ccc(-c3ccccc3)cc2s1` (centres unmarked) [Example 25, N-((5-(azetidin-3-yl)-1,3,4-oxadiazol-2-yl)(6-phenylbenzo[d]thiazol-2-yl)methyl)acetamide], the half-inhibitory concentration (IC50) was 277 nM.

`CC(=O)NC(c1nnc(C2CN(CC(C)(C)C)C2)o1)c1nc2ccc(-c3ccccc3)cc2s1` (centres unmarked) [Example 26, N-((5-(1-neopentylazetidin-3-yl)-1,3,4-oxadiazol-2-yl)(6-phenylbenzo[d]thiazol-2-yl)methyl)acetamide] yielded an IC50 of 17 nM.
